Measured values published in ChEMBL document CHEMBL3525963, “Tissue distribution and elimination of [14C]apixaban in rats” (Drug Metab Dispos, 2011).

Assays:
[1] = Drug level in feces of Sprague-Dawley rat treated with [14C]apixaban at 30 mg/kg, po assessed as compound level by HPLC method; settings: in vivo
[2] = Drug level in urine of Sprague-Dawley rat treated with [14C]apixaban at 30 mg/kg, po assessed as compound level by HPLC method; settings: in vivo

For `NC(=O)c1nn(-c2ccc(O)cc2)c2c1CCN(c1ccc(N3CCCC[14C]3=O)cc1)C2=O`, the Compound recovery [1] was 13% and the Compound recovery [2] was 2%.
